Laboratory results: patent publication US20240092784A1, “CONDENSED HETEROCYCLIC COMPOUND” (NISSAN CHEMICAL CORPORATION, priority 2020, published 2024)
pIC50: −log10 of the molar value.

Target: human SPR (Homo sapiens (Human), UniProt P35270)
Assay: Evaluation Example 2: Measurement of human SPR inhibitory activity (seven concentrations, sepiapterin absorbance at 420 nm)
Assay type: biochemical
Details: sepiapterin absorbance, Table 41, read-out: concentration at 50% inhibition of human SPR (IC50)
How it was run: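 Reactions ran 240 min at room temperature in 100 mM Tris-HCl pH 7.5 with 0.01% BSA. They contained tag-cleaved, E. coli-expressed full-length human SPR (diluted to 150 ng/mL), seven compound concentrations from 0.14 to 100 nM, and sepiapterin/NADPH added as a 120 μM/160 μM solution. Inhibition was calculated from sepiapterin absorbance at 420 nm.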

Chain of human SPR (P35270 whole entry): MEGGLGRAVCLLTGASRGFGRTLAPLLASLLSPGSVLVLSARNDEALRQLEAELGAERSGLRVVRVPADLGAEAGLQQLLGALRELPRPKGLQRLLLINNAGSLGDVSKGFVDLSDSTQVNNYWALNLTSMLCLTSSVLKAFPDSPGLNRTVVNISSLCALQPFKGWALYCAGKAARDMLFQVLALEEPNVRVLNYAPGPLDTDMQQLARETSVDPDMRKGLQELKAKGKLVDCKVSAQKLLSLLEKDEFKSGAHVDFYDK

Row | Structure (SMILES) | pIC50
1 | Cc1nn2c(O)c(C(=O)NC3CC3)c(=O)n(CC(C)C)c2c1/C=C/C(=O)N1CC[C@@H](C(C)(C)O)C1 [Synthesis Example 700, (R,E)-N-Cyclopropyl-7-hydroxy-3-(3-(3-(2-hydroxypropan-2-yl)pyrrolidin-1-yl)-3-oxoprop-1-en-1-yl)-4-isobutyl-2-methyl-5-oxo-4,5-dihydropyrazolo[1,5-a]pyrimidine-6-carboxamide] | 9.02
2 | Cc1nn2c(O)c(C(=O)NC3CC3)c(=O)n(CC(C)C)c2c1/C=C/C(=O)N1CCN(C)C[C@@H]1C [Synthesis Example 701, (S,E)-N-Cyclopropyl-3-(3-(2,4-dimethylpiperazin-1-yl)-3-oxoprop-1-en-1-yl)-7-hydroxy-4-isobutyl-2-methyl-5-oxo-4,5-dihydropyrazolo[1,5-a]pyrimidine-6-carboxamide] | 9.01
3 | Cc1nn2c(O)c(C(=O)NC3CC3)c(=O)n(CC(C)C)c2c1/C=C/C(=O)N1CCN(C)C[C@H]1C [Synthesis Example 702, (R,E)-N-Cyclopropyl-3-(3-(2,4-dimethylpiperazin-1-yl)-3-oxoprop-1-en-1-yl)-7-hydroxy-4-isobutyl-2-methyl-5-oxo-4,5-dihydropyrazolo[1,5-a]pyrimidine-6-carboxamide] | 9.06
4 | Cc1nn2c(O)c(C(=O)NC3CC3)c(=O)n(CC(C)C)c2c1/C=C/C(=O)N1CCN(CC2CC(F)(F)C2)C[C@@H]1C [Synthesis Example 703, (S,E)-N-Cyclopropyl-3-(3-(4-((3,3-difluorocyclobutyl)methyl)-2-methylpiperazin-1-yl)-3-oxoprop-1-en-1-yl)-7-hydroxy-4-isobutyl-2-methyl-5-oxo-4,5-dihydropyrazolo[1,5-a]pyrimidine-6-carboxamide] | 8.84
5 | Cc1nn2c(O)c(C(=O)NC3CC3)c(=O)n(CC(C)C)c2c1/C=C/C(=O)N1CCN(CC2CC(F)(F)C2)C[C@H]1C [Synthesis Example 704, (R,E)-N-Cyclopropyl-3-(3-(4-((3,3-difluorocyclobutyl)methyl)-2-methylpiperazin-1-yl)-3-oxoprop-1-en-1-yl)-7-hydroxy-4-isobutyl-2-methyl-5-oxo-4,5-dihydropyrazolo[1,5-a]pyrimidine-6-carboxamide] | 8.82
6 | Cc1nn2c(O)c(C(=O)NC3CC3)c(=O)n(CC(C)C)c2c1/C=C/C(=O)N1CCc2cnccc21 [Synthesis Example 705, (E)-N-Cyclopropyl-3-(3-(2,3-dihydro-1H-pyrrolo[3,2-c]pyridin-1-yl)-3-oxoprop-1-en-1-yl)-7-hydroxy-4-isobutyl-2-methyl-5-oxo-4,5-dihydropyrazolo[1,5-a]pyrimidine-6-carboxamide] | 8.80
7 | Cc1nn2c(O)c(C(=O)NC3CC3)c(=O)n(CC(C)C)c2c1/C=C/C(=O)N1CCOCC12CC2 [Synthesis Example 706, (E)-N-Cyclopropyl-7-hydroxy-4-isobutyl-2-methyl-5-oxo-3-(3-oxo-3-(7-oxa-4-azaspiro[2.5]octan-4-yl)prop-1-en-1-yl)-4,5-dihydropyrazolo[1,5-a]pyrimidine-6-carboxamide] | 9.09
8 | CCN1CCN(C(=O)/C=C/c2c(C)nn3c(O)c(C(=O)NC4CC4)c(=O)n(CC(C)C)c23)[C@@H](C)C1 [Synthesis Example 707, (S,E)-N-Cyclopropyl-3-(3-(4-ethyl-2-methylpiperazin-1-yl)-3-oxoprop-1-en-1-yl)-7-hydroxy-4-isobutyl-2-methyl-5-oxo-4,5-dihydropyrazolo[1,5-a]pyrimidine-6-carboxamide] | 9.08
9 | CC(C)Cn1c(=O)c(C(=O)NC2CC2)c(O)n2ncc(/C=C/C(=O)N3C[C@H]4COC[C@H]4C3)c12 [Synthesis Example 708, N-Cyclopropyl-7-hydroxy-4-isobutyl-5-oxo-3-((E)-3-oxo-3-((3aR,6aS)-tetrahydro-1H-furo[3,4-c]pyrrol-5(3H)-yl)prop-1-en-1-yl)-4,5-dihydropyrazolo[1,5-a]pyrimidine-6-carboxamide] | 9.13
10 | CC(C)Cn1c(=O)c(C(=O)NC2CC2)c(O)n2ncc(/C=C/C(=O)N(C)Cc3cnccn3)c12 [Synthesis Example 709, (E)-N-Cyclopropyl-7-hydroxy-4-isobutyl-3-(3-(methyl(pyrazin-2-ylmethyl)amino)-3-oxoprop-1-en-1-yl)-5-oxo-4,5-dihydropyrazolo[1,5-a]pyrimidine-6-carboxamide] | 9.07
11 | CC(C)Cn1c(=O)c(C(=O)NC2CC2)c(O)n2ncc(/C=C/C(=O)N(C)Cc3ccccn3)c12 [Synthesis Example 710, (E)-N-Cyclopropyl-7-hydroxy-4-isobutyl-3-(3-(methyl(pyridin-2-ylmethyl)amino)-3-oxoprop-1-en-1-yl)-5-oxo-4,5-dihydropyrazolo[1,5-a]pyrimidine-6-carboxamide] | 9.00
12 | CC(C)Cn1c(=O)c(C(=O)NC2CC2)c(O)n2ncc(/C=C/C(=O)N(C)Cc3ncccn3)c12 [Synthesis Example 711, (E)-N-Cyclopropyl-7-hydroxy-4-isobutyl-3-(3-(methyl(pyrimidin-2-ylmethyl)amino)-3-oxoprop-1-en-1-yl)-5-oxo-4,5-dihydropyrazolo[1,5-a]pyrimidine-6-carboxamide] | 8.92
13 | CC(C)Cn1c(=O)c(C(=O)NC2CC2)c(O)n2ncc(/C=C/C(=O)N(C)Cc3cccnc3)c12 [Synthesis Example 712, (E)-N-Cyclopropyl-7-hydroxy-4-isobutyl-3-(3-(methyl(pyridin-3-ylmethyl)amino)-3-oxoprop-1-en-1-yl)-5-oxo-4,5-dihydropyrazolo[1,5-a]pyrimidine-6-carboxamide] | 8.92
14 | CC(C)Cn1c(=O)c(C(=O)NC2CC2)c(O)n2ncc(/C=C/C(=O)N3CCN(C)C[C@@H]3C)c12 [Synthesis Example 713, (S,E)-N-Cyclopropyl-3-(3-(2,4-dimethylpiperazin-1-yl)-3-oxoprop-1-en-1-yl)-7-hydroxy-4-isobutyl-5-oxo-4,5-dihydropyrazolo[1,5-a]pyrimidine-6-carboxamide] | 9.02
15 | CC(C)Cn1c(=O)c(C(=O)NC2CC2)c(O)n2ncc(/C=C/C(=O)N3CCN(CC4CC(F)(F)C4)CC3)c12 [Synthesis Example 714, (E)-N-Cyclopropyl-3-(3-(4-((3,3-difluorocyclobutyl)methyl)piperazin-1-yl)-3-oxoprop-1-en-1-yl)-7-hydroxy-4-isobutyl-5-oxo-4,5-dihydropyrazolo[1,5-a]pyrimidine-6-carboxamide] | 8.60
16 | CC(C)Cn1c(=O)c(C(=O)NC2CC2)c(O)n2ncc(/C=C/C(=O)N3CCN(C4CC(F)(F)C4)C[C@H]3C)c12 [Synthesis Example 715, (R,E)-N-Cyclopropyl-3-(3-(4-(3,3-difluorocyclobutyl)-2-methylpiperazin-1-yl)-3-oxoprop-1-en-1-yl)-7-hydroxy-4-isobutyl-5-oxo-4,5-dihydropyrazolo[1,5-a]pyrimidine-6-carboxamide] | 8.89
17 | CC(C)Cn1c(=O)c(C(=O)NC2CC2)c(O)n2ncc(/C=C/C(=O)N3C[C@@H](C)OC[C@H]3C)c12 [Synthesis Example 716, N-Cyclopropyl-3-((E)-3-((2R,5R)-2,5-dimethylmorpholino)-3-oxoprop-1-en-1-yl)-7-hydroxy-4-isobutyl-5-oxo-4,5-dihydropyrazolo[1,5-a]pyrimidine-6-carboxamide] | 9.06
